Assay results as given in patent US8729089B2 (Gilead Sciences, Inc., priority 2006, dated 2014).

Columns and labels:
[1] = test system: HCV replicon in human hepatoma Huh-7 cell line; assay: Anti-HCV replicon assay (EC50, luciferase); assay type: cell-based; conditions: Hepatitis C virus, Huh-7, 72 h
How it was run: (§1)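 Cytotoxicity (CC50) measured by CellTiter-Glo and antiviral activity (EC50) by luciferase signal from lysed cells, both by luminescence. Replicon-bearing Huh-7 cells, 6000 per well, incubated 3 days at 37 °C with threefold-diluted compound (0.5% DMSO for DMSO-dissolved compounds).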

[2] = CC50 assay (CellTiter-Glo) in Huh-7 HCV replicon cells; assay type: cell-based, human; conditions: human, 3 days incubation, CellTiter-Glo readout
How it was run: as §1

## CCOc1nc(NCc2ccc(S(N)(=O)=O)cc2)nc2ccc(-c3ccc(NC(=O)OCCN4CCCC4)cc3)nc12 [Example 125]
[1]
  EC50: < 0.1 µM
[2]
  CC50 at 3 days: < 5 µM

## CCOc1nc(NCc2ccc(S(N)(=O)=O)cc2)nc2ccc(-c3cnc(N)s3)nc12 [Example 126, 4-{[4-Ethoxy-6-(2-aminothiazole-5-yl)-pyrido[3,2-d]pyrimidin-2-ylamino]-methyl}-benzenesulfonamide]
[1]
  EC50: < 0.1 µM
[2]
  CC50 at 3 days: < 5 µM

## CCOc1nc(NCc2ccc(S(N)(=O)=O)cc2)nc2ccc(-c3ccc(F)c(Cl)c3)nc12 [Example 127, 4-{[4-Ethoxy-6-(3-chloro-4-fluorophenyl)-pyrido[3,2-d]pyrimidin-2-ylamino]-methyl}-benzenesulfonamide]
[1]
  EC50: < 0.1 µM
[2]
  CC50 at 3 days: < 5 µM

## CCOc1nc(NCc2ccc(S(N)(=O)=O)cc2)nc2ccc(-c3ccc(NC(=O)N4CCOCC4)cc3)nc12 [Example 128, 4-{[4-Ethoxy-6-(4-(morpholine-4-carboxamido)-phenyl)-pyrido[3,2-d]pyrimidin-2-ylamino]-methyl}-benzenesulfonamide]
[1]
  EC50: < 0.1 µM
[2]
  CC50 at 3 days: 5 to 25 µM

## CCOc1nc(NCc2ccc(S(N)(=O)=O)cc2)nc2ccc(-c3ccc(NC(=O)N4CCCC4)cc3)nc12 [Example 129, 4-{[4-Ethoxy-6-(4-(pyrrolidine-1-carboxamido)-phenyl)-pyrido[3,2-d]pyrimidin-2-ylamino]-methyl}-benzenesulfonamide]
[1]
  EC50: < 0.1 µM
[2]
  CC50 at 3 days: > 25 µM

## CCOc1nc(NCc2ccc(S(N)(=O)=O)cc2)nc2ccc(-c3ccc(NC(N)=O)cc3)nc12 [Example 130, 4-{[4-Ethoxy-6-(4-ureidophenyl)-pyrido[3,2-d]pyrimidin-2-ylamino]-methyl}-benzenesulfonamide]
[1]
  EC50: < 0.1 µM
[2]
  CC50 at 3 days: 5 to 25 µM

## CCOc1nc(NCc2ccc(S(N)(=O)=O)cc2)nc2ccc(-c3ccc(NC(=O)NC4CC4)cc3)nc12 [Example 131, 4-{[4-Ethoxy-6-(4-(3-cyclopropylureido)-phenyl)-pyrido[3,2-d]pyrimidin-2-ylamino]-methyl}-benzenesulfonamide]
[1]
  EC50: < 0.1 µM
[2]
  CC50 at 3 days: 5 to 25 µM

## CCOc1nc(NCc2ccc(S(N)(=O)=O)cc2)nc2ccc(-c3cccc(NS(=O)(=O)N(C)C)c3)nc12 [Example 132]
[1]
  EC50: < 0.1 µM
[2]
  CC50 at 3 days: < 5 µM

## CCOc1nc(NCc2ccc(S(N)(=O)=O)cc2)nc2ccc(-c3cccc(S(N)(=O)=O)c3)nc12 [Example 133, 4-{[4-Ethoxy-6-(3-(aminosulfonyl)-phenyl)-pyrido[3,2-d]pyrimidin-2-ylamino]-methyl}-benzenesulfonamide]
[1]
  EC50: < 0.1 µM
[2]
  CC50 at 3 days: 5 to 25 µM

## CCOc1nc(NCc2ccc(S(N)(=O)=O)cc2)nc2ccc(-c3ccc(S(N)(=O)=O)cc3)nc12 [Example 134, 4-{[4-Ethoxy-6-(4-(aminosulfonyl)-phenyl)-pyrido[3,2-d]pyrimidin-2-ylamino]-methyl}-benzenesulfonamide]
[1]
  EC50: < 0.1 µM
[2]
  CC50 at 3 days: 5 to 25 µM

## CCOc1nc(NCc2ccc(S(N)(=O)=O)cc2)nc2ccc(-c3ccc(NC(=O)C(C)(C)N)cc3)nc12 [Example 135, 4-{[4-Ethoxy-6-(4-((2-amino-2-propyl)-carboxamido)-phenyl)-pyrido[3,2-d]pyrimidin-2-ylamino]-methyl}-benzenesulfonamide]
[1]
  EC50: < 0.1 µM
[2]
  CC50 at 3 days: < 5 µM

## CCOc1nc(NCc2ccc(S(N)(=O)=O)cc2)nc2ccc(-c3ccc(NC(=O)C4(O)CC4)cc3)nc12 [Example 136, 4-{[4-Ethoxy-6-(4-((1-hydroxy-1-cyclopropyl)-carboxamido)-phenyl)-pyrido[3,2-d]pyrimidin-2-ylamino]-methyl}-benzenesulfonamide]
[1]
  EC50: < 0.1 µM
[2]
  CC50 at 3 days: 5 to 25 µM

## CCOc1nc(NCc2ccc(S(N)(=O)=O)cc2)nc2ccc(-c3ccc(NC(=O)[C@@H](N)CO)cc3)nc12 [Example 137, (S)-4-{[4-Ethoxy-6-(4-((2-hydroxy-1-aminoethyl)-carboxamido)-phenyl)-pyrido[3,2-d]pyrimidin-2-ylamino]-methyl}-benzenesulfonamide]
[1]
  EC50: < 0.1 µM
[2]
  CC50 at 3 days: 5 to 25 µM

## CCOc1nc(NCc2ccc(S(N)(=O)=O)cc2)nc2ccc(-c3ccc(C(N)=O)cc3)nc12 [Example 138, 4-{[4-Ethoxy-6-(4-carbamoylphenyl)-pyrido[3,2-d]pyrimidin-2-ylamino]-methyl}-benzenesulfonamide]
[1]
  EC50: < 0.1 µM
[2]
  CC50 at 3 days: 5 to 25 µM

## CCOc1nc(NCc2ccc(S(N)(=O)=O)cc2)nc2ccc(-c3ccc(F)c(NS(=O)(=O)C4CC4)c3)nc12 [Example 139, 4-{[4-Ethoxy-6-(4-(3-cyclopropanesulfonamido-4-fluoro)-phenyl)-pyrido[3,2-d]pyrimidin-2-ylamino]-methyl}-benzenesulfonamide]
[1]
  EC50: < 0.1 µM
[2]
  CC50 at 3 days: < 5 µM

## CCOc1nc(NCc2ccc(S(N)(=O)=O)cc2)nc2ccc(-c3cccc(N(CCO)S(C)(=O)=O)c3)nc12 [Example 140, 4-{[4-Ethoxy-6-(4-(3-(N-2-hydroxy-ethyl)methanesulfonamido)-phenyl)-pyrido[3,2-d]pyrimidin-2-ylamino]-methyl}-benzenesulfonamide]
[1]
  EC50: 0.1 to 0.25 µM
[2]
  CC50 at 3 days: > 25 µM

## CCOc1nc(NCc2ccc(S(N)(=O)=O)cc2)nc2ccc(-c3ccc(C(=O)NC(C)(C)CN4CCCC4)cc3)nc12 [Example 142, 4-{[4-Ethoxy-6-(4-(N-(2-(pyrrolidin-1-yl)methyl-2-propyl)-carbamoyl)phenyl)-pyrido[3,2-d]pyrimidin-2-ylamino]-methyl}-benzenesulfonamide]
[1]
  EC50: < 0.1 µM
[2]
  CC50 at 3 days: < 5 µM

## CCOc1nc(NCc2ccc(S(N)(=O)=O)cc2)nc2ccc(-c3ccc(C(=O)NC4(C#N)CC4)cc3)nc12 [Example 143, 4-{[4-Ethoxy-6-(4-(N-(1-cyano-1-cyclopropyl)-carbamoyl)phenyl)-pyrido[3,2-d]pyrimidin-2-ylamino]-methyl}-benzenesulfonamide]
[1]
  EC50: < 0.1 µM
[2]
  CC50 at 3 days: 5 to 25 µM

## CCOc1nc(NCc2ccc(S(N)(=O)=O)cc2)nc2ccc(-c3ccc(C(=O)NC4CC4)cc3)nc12 [Example 144, 4-{[4-Ethoxy-6-(4-(N-cyclopropylcarbamoyl)phenyl)-pyrido[3,2-d]pyrimidin-2-ylamino]-methyl}-benzenesulfonamide]
[1]
  EC50: < 0.1 µM
[2]
  CC50 at 3 days: 5 to 25 µM

## CCOc1nc(NCc2ccc(S(N)(=O)=O)cc2)nc2ccc(-c3ccc(F)c(S(N)(=O)=O)c3)nc12 [Example 145, 5-[4-Ethoxy-2-(4-sulfamoyl-benzylamino)-pyrido[3,2-d]pyrimidin-6-yl]-2-fluoro-benzenesulfonamide]
[1]
  EC50: < 0.1 µM
[2]
  CC50 at 3 days: 5 to 25 µM

## CCOc1nc(NCc2ccc(S(N)(=O)=O)cc2)nc2ccc(-c3ccc(NC(=O)[C@H](C)N)cc3)nc12 [Example 146, 2-Amino-N-{4-[4-ethoxy-2-(4-sulfamoyl-benzylamino)-pyrido[3,2-d]pyrimidin-6-yl]-phenyl}-propionamide]
[1]
  EC50: < 0.1 µM
[2]
  CC50 at 3 days: 5 to 25 µM

## CCOc1nc(NCc2ccc(S(N)(=O)=O)cc2)nc2ccc(-c3ccc(NC(=O)[C@@H](N)[C@@H](C)O)cc3)nc12 [Example 147, 2-Amino-N-{4-[4-ethoxy-2-(4-sulfamoyl-benzylamino)-pyrido[3,2-d]pyrimidin-6-yl]-phenyl}-3-hydroxy-butyramide]
[1]
  EC50: < 0.1 µM
[2]
  CC50 at 3 days: < 5 µM

## CS(=O)(=O)CCNc1nc(NCc2ccc(S(N)(=O)=O)cc2)nc2ccc(-c3cnc(N)s3)nc12 [Example 148, 4-{[4-(2-Methanesulfonylethyl)-amino-6-(2-aminothiazole-5-yl)-pyrido[3,2-d]pyrimidin-2-ylamino]-methyl}-benzenesulfonamide]
[1]
  EC50: < 0.1 µM
[2]
  CC50 at 3 days: 5 to 25 µM

## NS(=O)(=O)c1ccc(CNc2nc(NCC(F)(F)F)c3nc(-c4ccc(F)cc4)ccc3n2)cc1 [Example 149, 4-{[4-(2,2,2-Trifluoroethyl)-amino-6-(4-fluorophenyl)-pyrido[3,2-d]pyrimidin-2-ylamino]-methyl}-benzenesulfonamide]
[1]
  EC50: < 0.1 µM
[2]
  CC50 at 3 days: 5 to 25 µM

## CS(=O)(=O)CCNc1nc(NCc2ccc(S(N)(=O)=O)cc2)nc2ccc(-c3ccc(F)c(Cl)c3)nc12 [Example 150, 4-{[4-(2-Methanesulfonylethyl)-amino-6-(3-chloro-4-fluorophenyl)-pyrido[3,2-d]pyrimidin-2-ylamino]-methyl}-benzenesulfonamide]
[1]
  EC50: < 0.1 µM
[2]
  CC50 at 3 days: < 5 µM

## NS(=O)(=O)c1ccc(CNc2nc(NCC(F)F)c3nc(-c4ccc(F)cc4)ccc3n2)cc1 [Example 151, 4-{[4-(2,2-Difluoroethyl)-amino-6-(4-fluorophenyl)-pyrido[3,2-d]pyrimidin-2-ylamino]-methyl}-benzenesulfonamide]
[1]
  EC50: < 0.1 µM
[2]
  CC50 at 3 days: < 5 µM

## CN(CCS(C)(=O)=O)c1nc(NCc2ccc(S(N)(=O)=O)cc2)nc2ccc(-c3ccc(F)cc3)nc12 [Example 152, 4-{[4-(N-(2-Methanesulfonylethyl)-N-methyl)-amino-6-(4-fluorophenyl)-pyrido[3,2-d]pyrimidin-2-ylamino]-methyl}-benzenesulfonamide]
[1]
  EC50: < 0.1 µM
[2]
  CC50 at 3 days: < 5 µM

## CS(=O)(=O)CCNc1nc(NCc2ccc(S(N)(=O)=O)cc2)nc2ccc(-c3ccc(F)cc3)nc12 [Example 153, 4-{[4-(2-Methanesulfonylethyl)-amino-6-(4-fluorophenyl)-pyrido[3,2-d]pyrimidin-2-ylamino]-methyl}-benzenesulfonamide]
[1]
  EC50: < 0.1 µM
[2]
  CC50 at 3 days: < 5 µM

## CC(C)(N)C(=O)Nc1ccc(-c2ccc3nc(NCc4ccc(S(N)(=O)=O)cc4)nc(NCCS(C)(=O)=O)c3n2)cc1 [Example 154, 4-{[4-(2-Methanesulfonylethyl)-amino-6-(4-((2-amino-2-propyl)-carboxamido)-phenyl)-pyrido[3,2-d]pyrimidin-2-ylamino]-methyl}-benzenesulfonamide]
[1]
  EC50: 0.1 to 0.25 µM
[2]
  CC50 at 3 days: > 25 µM
